Laboratory results from article PMC6508677, “Identification of druggable small molecule antagonists of the Plasmodium falciparum hexose transporter PfHT and assessment of ligand access to the glucose permeation pathway via FLAG-mediated protein engineering” (PLoS ONE, 2019).
Values joined by “and” are separate entries in the source; they are usually repeats but may differ in a detail not shown here. Identical values can stand only once. Like-named read-outs stand apart in the source and are kept apart here.

Target: T1, hGLUT4 (Homo sapiens, UniProt P14672)
T1 construct: expressed in transfected cells; host or cells: HEK293 (HEK293-FLIP, native hGLUT1 knocked down by shRNA)
T1 sequence (P14672 1-509): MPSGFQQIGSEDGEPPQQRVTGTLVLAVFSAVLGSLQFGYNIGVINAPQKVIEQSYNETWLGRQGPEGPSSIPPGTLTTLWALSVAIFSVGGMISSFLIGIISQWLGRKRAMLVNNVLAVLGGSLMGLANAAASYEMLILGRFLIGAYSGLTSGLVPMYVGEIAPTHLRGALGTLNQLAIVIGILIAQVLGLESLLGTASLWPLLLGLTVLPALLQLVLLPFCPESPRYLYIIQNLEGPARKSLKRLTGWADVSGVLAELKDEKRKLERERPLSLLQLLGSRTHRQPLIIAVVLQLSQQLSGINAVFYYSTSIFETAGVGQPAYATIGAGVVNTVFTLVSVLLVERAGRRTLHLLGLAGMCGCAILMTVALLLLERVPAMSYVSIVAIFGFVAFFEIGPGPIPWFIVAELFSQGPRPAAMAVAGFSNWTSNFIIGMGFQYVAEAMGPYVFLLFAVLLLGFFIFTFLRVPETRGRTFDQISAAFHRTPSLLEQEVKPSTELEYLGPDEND
Experiment: 2-DG uptake by HEK293 cells overexpressing hGLUT4
Format: cell-based
Settings: for remaining activity at 0.001 µM: 0.001 µM compound; for remaining activity at 0.001 µM / remaining activity at 1.25 µM / remaining activity at 2.5 µM / remaining activity at 5 µM / remaining activity at 10 µM / remaining activity at 20 µM / remaining activity at 40 µM / remaining activity at 80 µM / remaining activity at 160 µM / remaining activity at 225 µM: read-out: 2-DG uptake (percent uptake relative to vehicle), AVE per experiment; for remaining activity at 1.25 µM: 1.25 µM compound; for remaining activity at 20 µM: 20 µM compound; for remaining activity at 40 µM: 40 µM compound; for remaining activity at 80 µM: 80 µM compound; for remaining activity at 160 µM: 160 µM compound; for remaining activity at 225 µM: 225 µM compound; for IC50: IC50 for inhibition of 2-DG uptake
Text: Generation of HEK293 cells overexpressing PfHT and human GLUTs 1–4 were described elsewhere. Briefly, HEK293 cells were transfected with pcDNA3.1 FLII12Pglu-7006 (Addgene), containing the fluorescence resonance energy transfer (FRET) glucose sensor (HEK293-FLIP) and PfHT, human GLUT1 (hGLUT1), hGLUT2, hGLUT3, hGLUT4, hGLUT5 or hGLUT8 using Optifect (Life Technologies) according to manufacturer’s specifications. To increase retention of GLUT8 at the plasma membrane, the dileucine sorting signal E^7E^8XXXLL was modified to R^7R^8XXXLL as described in [17]. Stable transfectants were selected for G418 and hygromycin resistance to select for FRET sensor and hexose transporter, respectively. HEK293-FLIP cells were also used to generate cells stably transfected with FLAG-tagged PfHT (FTPfHT). FLAG tag ([…]) followed by a triple glycine linker and a tobacco etch virus (TEV) protease site (ENLYFQS) followed by a triple glycine linker was added to the N-terminus of PfHT via PCR [18] using Phusion Hot Start II High-Fidelity DNA Polymerase (Fisher Scientific). Single clones were selected by comparing their abilities to transport glucose as assayed via FRET and radiolabeled hexose uptake. In all cell lines, except for HEK293 cells overexpressing hGLUT1 and hGLUT5, native hGLUT1 was knocked down using shRNA as described elsewhere. Transcript levels of the individual GLUTs expressed in each cell line are as described in [13, 15] and in S1 Fig.
Glucose uptake by P. falciparum was performed essentially as described. P. falciparum strain 3D7 was cultured in 100 mm tissue culture dishes (Techno Plastic Products) in a 2% suspension of human erythrocytes and RPMI 1640 medium until reaching > 7.5% parasitemia. Cells were pelleted via centrifugation and resuspended in RPMI 1640 medium. To determine the uptake of radiolabeled glucose into the parasite, parasites were isolated from infected erythrocytes by permeablization with saponin (0.05 w/v), followed by centrifugation, aspiration of supernatant and washing of the pellet 3X with saline solution (135 mM NaCl, 2 mM KCl, 25 mM HEPES, 0.2 mM glucose and 1 mM MgCl2; pH 7.1) to remove cellular debris. WU-1 or DMSO vehicle were added to 100 μl parasites (resuspended in saline) 5 min prior to the addition of 100 μl [^14C]2-DOG (0.2- μCi/ml final concentration). 2-DG uptake was stopped after 2 min by layering the entire reaction over 300 μl of an oil mixture (5:4 mix of dibutyl phthalate / dinonyl phthalate) in Eppendorf tubes and centrifuged at 15,850 × g for 2 mins. The ratio of the estimated intracellular concentration of radiolabel relative to the extracellular concentration were calculated as described. Uptake of radiolabeled hexose into HEK293 cells was measured in glucose-free HBSS as described previously. Briefly, cells were plated at 400,000 cells/well overnight at 37°C in 24-well plates pre-treated with PEI. After 30-min incubation at 37°C in glucose-free HBSS in the presence of vehicle or increasing concentrations of compound, 2-DG uptake was measured in glucose-free HBSS for 4 min at 37°C. Cultures were washed in ice-cold 1X PBS and lysed in 0.1% Triton X-100 in 1X PBS. Radiolabeled hexose uptake was determined by liquid scintillation counting (Ultima Gold, Thermo Fisher) and normalized to total protein per well. Uptake data are plotted as percent uptake relative to vehicle-treated cells. Kinetic analyses were performed using the indicated concentrations of substrate and WU-1, with quenching of uptake after 1 min incubation. Incubation times had been previously determined as being in the linear range of time-dependent radiolabeled hexose uptake (2 min for 2-DG uptake into freed parasites; 2 and 4 min for D-Frc and 2-DG uptake HEK cell lines, respectively). Data were fit by least squares nonlinear regression analysis using GraphPad Prism 6.0 software.

[1] = HEK293, 4 min, GLUT4, 2.5 µM compound
[2] = HEK293, 4 min, GLUT4, 5 µM compound
[3] = HEK293, 4 min, GLUT4, 10 µM compound
[4] = GLUT4 cell line, mean/reported value

`Cc1ccc(S(=O)(=O)CCNC(=O)c2c(-c3c(Cl)cccc3Cl)noc2C)cc1` [WU-1, 3-(2,6-dichlorophenyl)-5-methyl-N-[2-(4-methylbenzenesulfonyl)ethyl]-1,2-oxazole-4-carboxamide] was tested, and the “IC50 for inhibition of 2-DG uptake, individual experiments” value (GLUT4, Expt 1-3) was “ambiguous”, the remaining activity at 0.001 µM (HEK293, 4 min, GLUT4) was 100% and the remaining activity at 1.25 µM (HEK293, 4 min, GLUT4) was 99.2%. For the same molecule, the remaining activity at 2.5 µM [1] was 96.1%, the remaining activity at 5 µM [2] was 89.1% and the remaining activity at 10 µM [3] was 94%. It also gave a remaining activity at 20 µM (HEK293, 4 min, GLUT4) of 88.4%, a remaining activity at 40 µM (HEK293, 4 min, GLUT4) of 86.8% and a remaining activity at 80 µM (HEK293, 4 min, GLUT4) of 74.7%. For the same molecule, the remaining activity at 160 µM (HEK293, 4 min, GLUT4) was 64.7%, the remaining activity at 225 µM (HEK293, 4 min, GLUT4) was 61.9% and the remaining activity at 5 µM (HEK293, 4 min) was 102%. It also gave a remaining activity at 10 µM (HEK293, 4 min) of 83.2%, an inhibition at 5 µM (HEK293, 4 min, read-out: % Inhibition of 2-DG uptake vs vehicle) of -1.91% and an IC50 [4] greater than 100 µM.

With `COc1c(Br)cc([N+](=O)[O-])c(OC)c1C(=O)NC(=O)Nc1c(C)cccc1Cl` [WU-2, 3-(3-bromo-2,6-dimethoxy-5-nitrobenzoyl)-1-(2-chloro-6-methylphenyl)urea] the “Maximum Inhibition (%)” value (2-DG uptake, GLUT4 cell line) was 40.0%, the remaining activity at 0.001 µM (HEK293, 4 min, GLUT4) was 100% and the remaining activity at 1.25 µM (HEK293, 4 min, GLUT4) was 95.3%. The remaining activity at 2.5 µM [1] was 91.7%, the remaining activity at 5 µM [2] was 86.8% and the inhibition at 5 µM (HEK293, 4 min, GLUT4, 5 µM compound, read-out: % Inhibition of 2-DG uptake vs vehicle) was 10 to 12%. The remaining activity at 10 µM [3] was 88.3%, the remaining activity at 20 µM (HEK293, 4 min, GLUT4) was 74.1% and the remaining activity at 40 µM (HEK293, 4 min, GLUT4) was 66.7%. The remaining activity at 80 µM (HEK293, 4 min, GLUT4) was 61%, the remaining activity at 160 µM (HEK293, 4 min, GLUT4) was 55.7% and the remaining activity at 225 µM (HEK293, 4 min, GLUT4) was 63.7%. For the same molecule, the IC50 [4] was 18.5 ± 3.5 µM and the IC50 (individual experiments, GLUT4, Expt 1-3) was 14.2 µM and 25.4 µM and 15.9 µM.

Molecule `COc1cc(/C=C2\COC/C(=C\c3cc(OC)c(OC)c(OC)c3)C2=O)cc(OC)c1OC` [WU-5, (3E,5E)-3,5-bis[(3,4,5-trimethoxyphenyl)methylidene]oxan-4-one] has an inhibition at 2.5 µM (HEK293, 4 min, GLUT4, 2.5 µM compound, read-out: % Inhibition of 2-DG uptake vs vehicle) of roughly 45%.
